Source: article PMC6692352, “DF2726A, a new IL-8 signalling inhibitor, is able to counteract chemotherapy-induced neuropathic pain” (Scientific Reports, 2019)

Columns and labels:
[1] = Pharmacokinetics in the rat, intravenous and oral; type: in vivo, Sprague Dawley rats
Procedure: Pharmacokinetics studies in the rat
DF2726A was administered to male Sprague Dawley rats (Charles River Srl. Calco Italy, 6-8 weeks old, n = 4/groups) intravenously (5 mg/kg, Dulbecco’s phosphate buffered saline) and orally (5 mg/kg Dulbecco’s phosphate buffered saline).
On day of treatment, an exact amount of DF2726A was dissolved in the appropriate volume of vehicle to obtain a final concentration of 2.0 mg/mL (IV) and 1 mg/mL (OS). Both of the formulations were filtered at 0.45 μm filter before use in animals.
After the administration of DF2726A, a 0.15-0.20 mL of blood was collected via jugular vein catheters with zero-dead volume disposable syringes (1 mL iv Insulin syringes with attached 25G […]
5/8 inch needles; Chemil s.r.l., Padova, Italy) at 0.08, 0.5, 1, 3, 6, 12, 24, 36 and 48 h for i.v. dosing and at 0.25, 0.5, 1, 3, 6, 12, 24, 36 and 48 h for oral dosing. After each blood withdrawal, the catheters were washed with 0.15-0.2 mL of sterile physiological saline and filled with 0.03 mL of heparin saline solution (0.25 U.I/mL). The heparinized blood was immediately centrifuged (8000 RPM for 5 min at approximately 4°C) and the resultant plasma transferred into vials and stored at - 20°C until analysis. DF2726A concentrations were quantified by HLPC-MS/MS using a chromatographic method with a lower limit of quantitation of 1 ng·mL -1. Non-compartmental analysis (Gibaldi and Perrier, 1982) were used to calculate the pharmacokinetic parameters using a MKModel by Nick Holford software Version 4, (Biosoft, Ferguson, MO 63 135, USA). […]

TRPM8 = experiment: Western blot of DRG of oxaliplatin rats, TRPM8; type: in vivo, male Wistar rats; conditions: 30 mg/kg os
Procedure: (§1) Animals were sacrificed and dorsal root ganglia (DRG) (L4-L6) were removed and stored at […]. They were homogenized on ice-cold lysis buffer [20 mM Tris–HCl (pH 7.5), 10 mM NaF, 150 mM NaCl, 1% Nonidet P-40, 1 mM phenylmethylsulfonyl fluoride, 1 mM Na3VO4, leupeptin and trypsin inhibitor 10 μg/mL; 20 µl/sample, as previously described.
(§2) After 1 h, tissue lysates were obtained by centrifugation at 20,000 g for 15 min at 4 °C. Protein concentrations were estimated by the Bio-Rad protein assay using bovine serum albumin as standard.
(§3) DRG lysate proteins (30 μg) were dissolved in Laemmli sample buffer, boiled for 5 min, and separated on SDS-polyacrylamide gel elctrophoresis and transferred onto nitrocellulose membrane (240 mA for 40 min at room temperature). […] The protein bands were scanned and densitometrically analyzed with a model GS-700 imaging densitometer (Bio-Rad Laboratories, Milan, Italy). […]

TRPA1 = experiment: Western blot of DRG of oxaliplatin rats, TRPA1; type: in vivo, male Wistar rats; conditions: 30 mg/kg os
Procedure: as §1, §2, §3

[2] = single 5 mg/kg intravenous dose

## CC(C)(C(=O)O)c1ccc(Nc2nc(C(F)(F)F)cs2)cc1 [DF2726A]
[1]; 5 mg/kg oral dose
  AUC0-last Oral: 136.3 ± 22.6 µg·h/mL
  Cmax Oral: 6.86 ± 1.6 µg/mL
  t1/2 Oral: 16.2 ± 3.3 h
  tmax Oral: 6.0 h
[1]; 5 mg/kg oral vs 5 mg/kg intravenous
  F (oral bioavailability): 96.8%
[1]; [2]
  AUC0-last Intravenous: 140.8 ± 24.9 µg·h/mL
  CLtotal Intravenous: 0.0372 ± 0.0066 L/h/kg
  Vd Intravenous: 0.52 ± 0.09 L/kg
  t1/2 Intravenous: 15.2 ± 3.8 h
TRPM8
  TRPM8 expression in DRG of oxaliplatin rats: significant reduction in the expression
TRPA1
  TRPA1 expression in DRG of oxaliplatin rats: significant reduction in the expression
